We go through 7 molecules from patent US12134610B2, “Somatostatin subtype-2 receptor (SST2R) targeted therapeutics and uses thereof” (priority 2022, dated 2024).

Common to all, as to type: cell-based
The target in test [1] is T1, human somatostatin receptor subtype 2 (Homo sapiens, UniProt P30874).
T1 construct: expressed in transfected cells
The test can be described thus: Functional cAMP assay for SSTR2 agonists (HTRF) in CHO-K1 cells. The conditions noted are these: CHO-K1 cells stably expressing human SST2, 20 min; read-out: hSST2 cAMP Avg EC50. The method, boiled down:
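Agonism scored as loss of NKH477 (1.6 μM)-driven cAMP, with IBMX present, after 20 min, 37° C. exposure of stably transfected CHO-K1 cells to compound dilutions (typically 0-10,000 nM). Lysates read by time-resolved FRET; cAMP interpolated from standard curve and EC50 derived.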

Another test deals with T2, SST2 (Homo sapiens, UniProt P30874).
T2 construct: host or cells: PathHunter CHO-K1 SST2 cells
The test can be described thus: PathHunter CHO-K1 SST2 internalization assay. The conditions noted are these: PathHunter CHO-K1 SST2, 90 min; read-out: Internalization EC50. The method, boiled down:
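IC50 comes from four-parameter curves on background-corrected duplicates of Beta-Glo luminescence, read after 60 min at room temperature in the dark. Before that, CHO-K1 SST2 internalization cells (48 h post-seeding) received SMDC as eleven threefold dilutions, 10 uM highest final, for 90 min at 37 C.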

Test [2] has as its system NCI-H524 (ATCC) human small cell lung cancer cells. The conditions noted are these: 2 h. The method, boiled down:
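CellTiter-Glo luminescence after a 2 h SMDC pulse (top dose 1 uM, 2-fold dilutions, 11 points), medium wash, then 70 h recovery. Cells were seeded at 5,000/well and dosed 24 h later. % inhibition vs control gave IC50 via four-parameter fit.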

Broadly, the EC50 is the concentration at which the effect is half-maximal.

Starred links: 1 amine or outer side, 2 acyl side, 3 side chain; linkers in the order of their positions; H or OH if unused. Non-standard residues stand in square brackets, D forms with d. Residues, ends and D or L forms follow the SMILES beside them. *: point of attachment. PABC(3-O-βDGlc) = O=C(OCc1ccc(N[*:1])c(O[C@@H]2O[C@H](CO)[C@@H](O)[C@H](O)[C@H]2O)c1)[*:2]; X1 = Cc1cc(F)cc(-c2cnc(NCCNC(=O)CCOCCC(=O)*)c(-c3nc4ccc(Cl)cc4[nH]3)c2N2CCC(N)CC2)c1; Dolaproine = CO[C@@H]([C@@H]1CCCN1)[C@@H](C)C(=O)O; Dil = CC[C@H](C)[C@H](NC)[C@@H](CC(=O)O)OC; X2 = C[C@@H](N*)[C@@H](O)c1ccccc1; Cit = NC(=O)NCCC[C@H](N)C(=O)O; NMeV = CN[C@H](C(=O)O)C(C)C

T2 sequence (P30874 whole entry): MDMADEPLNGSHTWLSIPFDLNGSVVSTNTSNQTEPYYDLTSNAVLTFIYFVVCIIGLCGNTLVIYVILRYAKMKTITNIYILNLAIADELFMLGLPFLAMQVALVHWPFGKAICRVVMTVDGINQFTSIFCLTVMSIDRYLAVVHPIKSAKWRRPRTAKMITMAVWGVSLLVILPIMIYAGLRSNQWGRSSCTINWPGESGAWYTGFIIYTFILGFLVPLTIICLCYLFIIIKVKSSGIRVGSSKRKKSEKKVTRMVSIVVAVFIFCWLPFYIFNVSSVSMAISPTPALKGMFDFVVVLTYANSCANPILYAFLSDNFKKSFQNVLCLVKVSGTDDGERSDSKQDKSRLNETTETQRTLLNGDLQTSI
T1 sequence (P30874 whole entry): as above

For the molecule `CC[C@H](C)[C@@H]([C@@H](CC(=O)N1CCC[C@H]1[C@H](OC)[C@@H](C)C(=O)N[C@H](C)[C@@H](O)c1ccccc1)OC)N(C)C(=O)[C@@H](NC(=O)[C@H](C(C)C)N(C)C(=O)OCc1ccc(NC(=O)[C@H](CCCNC(N)=O)NC(=O)[C@@H](NC(=O)CCOCCC(=O)NCCNc2ncc(-c3cc(C)cc(F)c3)c(N3CCC(N)CC3)c2-c2nc3ccc(Cl)cc3[nH]2)C(C)C)c(O[C@@H]2O[C@H](CO)[C@@H](O)[C@H](O)[C@H]2O)c1)C(C)C` [Compound 134], the half-maximal effective concentration (EC50) is 0.18 nM in test [1], 4.6 nM on SST2 and 3.8 nM in test [2].

Turning to `CC[C@H](C)[C@@H]([C@@H](CC(=O)N1CCC[C@H]1[C@H](OC)[C@@H](C)C(=O)N[C@H](C)[C@@H](O)c1ccccc1)OC)N(C)C(=O)[C@@H](NC(=O)[C@H](C(C)C)N(C)C(=O)OCc1ccc(NC(=O)[C@H](CCCNC(N)=O)NC(=O)[C@@H](NC(=O)[C@H](CCC(=O)O)NC(=O)CCOCCC(=O)NCCNc2ncc(-c3cc(C)cc(F)c3)c(N3CCC(N)CC3)c2-c2nc3ccc(Cl)cc3[nH]2)C(C)C)c(O[C@@H]2O[C@H](CO)[C@@H](O)[C@H](O)[C@H]2O)c1)C(C)C` [Compound 135] (X1-EV[Cit][PABC(3-O-βDGlc)][NMeV]V[Dil][Dolaproine]-X2), the EC50 in test [1] stood at 0.15 nM; at SST2, 2.8 nM; in test [2], 38 nM.

For the molecule `CC[C@H](C)[C@@H]([C@@H](CC(=O)N1CCC[C@H]1[C@H](OC)[C@@H](C)C(=O)N[C@H](C)[C@@H](O)c1ccccc1)OC)N(C)C(=O)[C@@H](NC(=O)[C@H](C(C)C)N(C)C(=O)OCc1ccc(NC(=O)[C@H](CCCNC(N)=O)NC(=O)[C@@H](NC(=O)[C@H](CCC(N)=O)NC(=O)CCOCCC(=O)NCCNc2ncc(-c3cc(C)cc(F)c3)c(N3CCC(N)CC3)c2-c2nc3ccc(Cl)cc3[nH]2)C(C)C)c(O[C@@H]2O[C@H](CO)[C@@H](O)[C@H](O)[C@H]2O)c1)C(C)C` [Compound 136] (X1-QV[Cit][PABC(3-O-βDGlc)][NMeV]V[Dil][Dolaproine]-X2), the half-maximal effective concentration (EC50) in test [1] was 0.23 nM; at SST2, 6.7 nM; in test [2], 5.8 nM.

For `CC[C@H](C)[C@@H]([C@@H](CC(=O)N1CCC[C@H]1[C@H](OC)[C@@H](C)C(=O)N[C@H](C)[C@@H](O)c1ccccc1)OC)N(C)C(=O)[C@@H](NC(=O)[C@H](C(C)C)N(C)C(=O)OCc1ccc(NC(=O)[C@H](CCCNC(N)=O)NC(=O)[C@@H](NC(=O)CCOCCOCCC(=O)NCCNc2ncc(-c3cc(C)cc(F)c3)c(N3CCC(N)CC3)c2-c2nc3ccc(Cl)cc3[nH]2)C(C)C)c(O[C@@H]2O[C@H](C(=O)O)[C@@H](O)[C@H](O)[C@H]2O)c1)C(C)C` [Compound 137], the concentration for a half-maximal effect (EC50) was 0.51 nM in test [1], 4.6 nM at SST2 and 6.7 nM in test [2].

`CC[C@H](C)[C@@H]([C@@H](CC(=O)N1CCC[C@H]1[C@H](OC)[C@@H](C)C(=O)N[C@H](C)[C@@H](O)c1ccccc1)OC)N(C)C(=O)[C@@H](NC(=O)[C@H](C(C)C)N(C)C(=O)OCc1ccc(NC(=O)[C@H](CCCNC(N)=O)NC(=O)[C@@H](NC(=O)CCOCCOCCOCCC(=O)NCCNc2ncc(-c3cc(C)cc(F)c3)c(N3CCC(N)CC3)c2-c2nc3ccc(Cl)cc3[nH]2)C(C)C)c(O[C@@H]2O[C@H](C(=O)O)[C@@H](O)[C@H](O)[C@H]2O)c1)C(C)C` [Compound 138]: the EC50 in test [1] turned out to be 0.16 nM; on SST2, 5.2 nM; in test [2] it was 12 nM.

Regarding `CC[C@H](C)[C@@H]([C@@H](CC(=O)N1CCC[C@H]1[C@H](OC)[C@@H](C)C(=O)N[C@H](C)[C@@H](O)c1ccccc1)OC)N(C)C(=O)[C@@H](NC(=O)[C@H](C(C)C)N(C)C(=O)OCc1ccc(NC(=O)[C@H](C)NC(=O)[C@@H](NC(=O)CCCC(=O)N(C)CC(=O)NCCNc2ncc(-c3cc(C)cc(F)c3)c(N3CCC(N)CC3)c2-c2nc3ccc(Cl)cc3[nH]2)C(C)C)c(O[C@@H]2O[C@H](C(=O)O)[C@@H](O)[C@H](O)[C@H]2O)c1)C(C)C` [Compound 140], the half-maximal effective concentration (EC50) in test [1] is 0.33 nM; at SST2, 1.8 nM; in test [2], 5.4 nM.

`CC[C@H](C)[C@@H]([C@@H](CC(=O)N1CCC[C@H]1[C@H](OC)[C@@H](C)C(=O)N[C@H](C)[C@@H](O)c1ccccc1)OC)N(C)C(=O)[C@@H](NC(=O)[C@H](C(C)C)N(C)C(=O)OCc1ccc(NC(=O)[C@H](CCCNC(N)=O)NC(=O)[C@@H](NC(=O)CCCC(=O)N(C)CC(=O)NCCNc2ncc(-c3cc(C)cc(F)c3)c(N3CCC(N)CC3)c2-c2nc3ccc(Cl)cc3[nH]2)C(C)C)c(O[C@@H]2O[C@H](C(=O)O)[C@@H](O)[C@H](O)[C@H]2O)c1)C(C)C` [Compound 141]: the concentration giving a half-maximal response (EC50) in test [1] came to 0.22 nM; on SST2, 2.3 nM; in test [2] it was 11 nM.
